Experimental findings from patent US20200069775A1, “BRAIN OSTEOCALCIN RECEPTOR AND COGNITIVE DISORDERS” (The Trustees of Columbia University in the City of New York, priority 2017, published 2020) are described below.

One data set deals with 16 month old WT mice. The data set is described as follows: ICV delivery in aged WT mice, modified Novel Object Recognition test. The data set is classed as in vivo, mouse. Conditions: ICV 10 ng/hr, one month. As to the method:
ICV pumps delivering (10 ng/hr) recombinant uncarboxylated full-length mouse osteocalcin were implanted in 16 month old WT mice. After an infusion period of one month, the mice were subjected to a modified version of the Novel Object Recognition test, to assay memory and hippocampal function. Briefly, mice were given five 5 minute exposures, with 3 minute resting intervals between exposures, to a novel arena containing two objects. During exposures 1-4, mice were habituated to these two objects, which elicited equal amounts of exploration. In the fifth exposure, one of the objects was replaced with a novel object.

Data set [1] is described as follows: Blood brain barrier crossing: subcutaneous pump infusion, content in blood, bone and brain parts by ELISA. The data set is classed as in vivo, mouse. Conditions: Osteocalcin−/− mice, subcutaneous pumps 50 ng/hour, seven days. The method, then: Osteocalcin−/−, Gprc6a−/−, Osteocalcin-mCherry, and Osteocalcin foxed mice have been previously described (Ducy et al., 1996, Nature 382:448-452; Oury et al., 2011, Cell 144:796-809). Mouse genotypes were determined by PCR. For all experiments, controls were littermate female WT, Cre-expressing, or flox/flox. All mice were maintained on a pure 129-Sv genetic background except for the inducible deletion Osteocalcin model (mix background: 25% C57/BL6 and 75% 129sv). For inducible gene deletion mice, tamoxifen was prepared in corn oil and injected intraperitoneally (IP) (1 mg/20g of body weight) over one week. For osteocalcin delivery to pregnant mice, IP injections (240 ng/day) were performed as soon as a plug was present daily until delivery (E0.5-E18.5). For osteocalcin or leptin infusion in adult Osteocalcin−/− or ob/ob mice, pumps (Alzet micro-osmotic pump, Model 1002) delivering osteocalcin (300 ng/hr), leptin (50 ng/hr), or vehicle were surgically installed subcutaneously in the backs of 3-month old mice. For the postnatal rescue of cognitive functions in Osteocalcin−/− mice, osteocalcin (10 ng/hour) or vehicle were delivered intrasubventricularly (icv) as previously described (Ducy et al., 2000, Cell 100:197-207). Leptin and osteocalcin content in sera and tissues were determined by ELISA.
To understand how this behavioral phenotype develops, whether osteocalcin crosses the blood brain barrier (BBB) was tested by installing pumps that subcutaneously delivered vehicle or uncarboxylated osteocalcin (50 ng/hour) in three-month-old Osteocalcin−/− mice. The positive control for this experiment was subcutaneous infusion of leptin (50 ng/hour) in 3 month-old ob/ob mice, since leptin is known to cross the BBB (Banks et al., 1996, Peptides 17:305-311). Seven days later, osteocalcin and leptin content were measured in blood, bone, and in various parts of the brain in Osteocalcin−/− and ob/ob mice, respectively.

For data set [2], the system named is brainstem neurons (dorsal raphe 5-HT neurons, locus coeruleus, GABAergic interneurons). The data set is described as follows: Whole cell current clamp recording in brainstem slices. As to conditions: whole cell current clamp. The format is cell-based, mouse.
Protocol: Brain slice preparations and electrophysiological recordings were performed according to methods known in the art. Briefly, WT mice were anesthetized with ether and then decapitated. The brains were rapidly removed and immersed in an oxygenated bath solution at 40° C. containing (in mM): sucrose 220, KCl 2.5, CaCl2 1, MgC12 6, NaH2PO4 1.25, NaHCO3 26, and glucose 10 pH 7.3 with NaOH. Coronal slices (350 μm thick) containing dorsal raphe (DR) were cut on a vibratome and maintained in a holding chamber with artificial cerebrospinal fluid (ACSF) (bubbled with 5% CO2 and 95% O2) containing (in mM): NaCl 124, KCl 3, CaCl2 2, MgCl2 2, NaH2PO4 1.23, NaHCO3 26, glucose 10, pH 7.4 with NaOH, and were transferred to a recording chamber constantly perfused with bath solution (330 C) at 2 ml/min after at least a 1 hr recovery. Whole-cell current clamp was performed to observe action potentials in DR serotoninergic (5-HT) neurons with a Multiclamp 700A amplifier (Axon instrument, CA). Patch pipettes with a tip resistance of 4-6 MΩ were made of borosilicate glass (World Precision Instruments) with a Sutter pipette puller (P-97) and filled with a pipette solution containing (in mM): K-gluconate (or Cs-gluconate) 135, MgCl2 2, HEPES 10, EGTA 1.1, Mg-ATP 2, Na2-phosphocreatine 10, and Na2-GTP 0.3, pH 7.3 with KOH. After a giga-Ohm (GΩ) seal and whole-cell access were achieved, the series resistance (between 20 and 40 MΩ) was partially compensated by the amplifier. […] All data were sampled at 3-10 kHz and filtered at 1-3 kHz with an Apple Macintosh computer using Axograph 4.9 (Axon Instruments). Electrophysiological data were analyzed with Axograph 4.9 and plotted with Igor Pro software (WaveMetrics, Lake Oswego, Oreg.).
Data set [3] relates to cAMP production in hippocampal neurons. The data set is described as follows: cAMP accumulation in primary hippocampal neurons. The format is cell-based, mouse. Conditions: cultured hippocampal neurons. As to the method: Hippocampal neurons were isolated from mouse embryos (embryonic day 16.5). After dissection, hippocampi were digested in Tryspin 0.05% and EDTA 0.02% for 15 minutes at 37° C. After 3 wash in DMEM (high glucose and sodium pyruvate) supplemented with 10% of fetal bovine serum, 100 U/mL Penicillin-Streptomycin and 1× GlutaMAX, cells were dissociated by pipetting up and down and then plated. After the culture was established, medium was changed 2 times per week with Neurobasal medium supplemented with B-27 supplement and 1× GlutaMAX. Experiments were performed on cells after 15 days of culture (DIV 15).
For Western blotting, frozen hippocampi from adult mice were lysed and homogenized in 250 µl tissue lysis buffer (25 mM Tris HCl 7.5; 100 mM NaF; 10 mM Na4P2O7; 10 mmM EDTA; 1% NP 40). Proteins were transferred to nitrocellulose membranes, and blocked with TBST-5% BSA for 1 hour. […] Western blot bands were quantified using ImageJ software. cAMP accumulation was measured in primary hippocampal neurons by using cAMP Parameter Assay Kit (R&D systems) and performed in primary hippocampal neurons (DIV15) following manufacturer instructions. For IP1 accumulation was determined in primary hippocampal neurons (DIV15) by using IP-One ELISA assay kit (Cisbio) following manufacturer instructions. […]
(In general: cAMP levels reflect the balance of adenylyl cyclase and phosphodiesterase activity.)

Consider “osteocalcin: Recombinant osteocalcin bacterially produced, cleaved from the GST subunit; completely undercarboxylated at all three sites; full-length mouse osteocalcin (YLGASVPSPDPLEPTREQCELNPACDELSDQYGLKTAYKRIYGITI)”, for which, in the data set with 16 month old WT mice, the “discrimination between novel and constant objects” value was “able to discriminate between the novel and constant objects”; the “time exploring the novel object (Novel Object Recognition)” value was “spent less time exploring the novel object than mice treated with vehicle alone”. In addition, in data set [1], the “osteocalcin accumulation in parts of the brain” value is “accumulated in Osteocalcin−/− mice in the brainstem, thalamus, and hypothalamus”; the “osteocalcin concentration in brainstem, thalamus, and hypothalamus relative to that observed in serum” value is on record as approximately 50%. For the same substance, in data set [2], the “action potential frequency in neurons of the locus coeruleus” value was “decreases it”, the “action potential frequency of brainstem neurons” value is reported as “activates the action potential frequency” and the “action potential frequency of the GABAergic interneurons of the hindbrain” value is reported as “inhibits the action potential frequency”. Besides, in data set [3], the cAMP production result was “did not affect cAMP production”.
